Results on three molecules are retold here after patent US7169817B2, “Bis-aromatic alkanols” (IRM LLC, priority 2002, dated 2007).

What all share (test): GTPγS binding assay using S1P receptor/HEK293 membrane preparations
Format in all cases: biochemical
Conditions in all cases: membranes of transiently transfected HEK293 cells
On the technique in general: GTPγS is a poorly hydrolysed GTP analogue; its binding reports G protein activation.

One experiment addresses T1, S1P1 (Homo sapiens, UniProt P21453).
T1 construct: expressed in transfected cells; host or cells: HEK293 (transient, calcium phosphate); crude membranes
From the text:
(§1) A. In vitro: Binding Affinity of Compounds of Formula I to Individual Human S1P Receptors may be Determined in the Following Assays:
(§2) Transient Transfection of Human S1P Receptors into HEK293 Cells
(§3) EDG receptors and Gi proteins are cloned, and equal amounts of 4 cDNAs for the EDG receptor, Gi-α, Gi-β and Gi-γ are mixed and used to transfect monolayers of HEK293 cells using the calcium phosphate precipitate method (M. Wigler et al., Cell. 1977;11;223 and D S. Im et al., Mol. Pharmacol. 2000;57;753). Briefly, a DNA mixture containing 25 μg of DNA and 0.25 M CaCl is added to HEPES-buffered 2 mM Na2HPO4. Subconfluent monolayers of HEK293 cells are poisoned with […] chloroquine, and the DNA precipitate is then applied to the cells. After 4 hours, the monolayers are washed with phosphate-buffered saline and re-fed media (90% 1:1 Dulbecco's modified essential media (DMEM):F-12+10% fetal bovine serum). The cells are harvested 48–72 hours after addition of the DNA by scraping in HME buffer (in mM: 20 HEPES, 5 MgCl2, 1 EDTA, pH 7.4) containing 10% sucrose on ice, and disrupted using a Dounce homogenizer. After centrifugation at 800×g, the supernatant is diluted with HME without sucrose and centrifuged at 100,000×g for 1 hour. The resulting pellet is rehomogenized and centrifuged a second hour at 100,000×g. This crude membrane pellet is resuspended in HME with sucrose, aliquoted, and snap-frozen by immersion in liquid nitrogen. The membranes are stored at […] Protein concentration is determined spectroscopically by the Bradford protein assay.
(§4) GTPγS Binding Assay Using S1P Receptor/HEK293 Membrane Preparations
(§5) GTPγS binding experiments are performed as described by D S. Im et al., Mol. Pharmacol. 2000; 57:753. Ligand-mediated GTPγS binding to G-proteins is measured in GTP binding buffer (in mM: 50 HEPES, 100 NaCl, 10 MgCl2, pH 7.5) using 25 μg of a membrane preparation from transiently transfected HEK293 cells. Ligand is added to membranes in the presence of 10 μM GDP and 0.1 nM [^35S]GTPγS (1200 Ci/mmol) and incubated at 30° C. for 30 min. Bound GTPγS is separated from unbound using the Brandel harvester (Gaithersburg, Md.) and counted with a liquid scintillation counter.

The target of the next experiment is T2, S1P2 (Homo sapiens, UniProt O95136).
T2 construct: expressed in transfected cells; host or cells: HEK293 (transient, calcium phosphate); crude membranes
Excerpt: as §1, §2, §3, §4, §5

A further experiment has as its target T3, S1P3 (Homo sapiens, UniProt Q99500).
T3 construct: expressed in transfected cells; host or cells: HEK293 (transient, calcium phosphate); crude membranes
Excerpt: as §1, §2, §3, §4, §5

A further experiment deals with T4, S1P4 (Homo sapiens, UniProt O95977).
T4 construct: expressed in transfected cells; host or cells: HEK293 (transient, calcium phosphate); crude membranes
T4 sequence (O95977 1-384): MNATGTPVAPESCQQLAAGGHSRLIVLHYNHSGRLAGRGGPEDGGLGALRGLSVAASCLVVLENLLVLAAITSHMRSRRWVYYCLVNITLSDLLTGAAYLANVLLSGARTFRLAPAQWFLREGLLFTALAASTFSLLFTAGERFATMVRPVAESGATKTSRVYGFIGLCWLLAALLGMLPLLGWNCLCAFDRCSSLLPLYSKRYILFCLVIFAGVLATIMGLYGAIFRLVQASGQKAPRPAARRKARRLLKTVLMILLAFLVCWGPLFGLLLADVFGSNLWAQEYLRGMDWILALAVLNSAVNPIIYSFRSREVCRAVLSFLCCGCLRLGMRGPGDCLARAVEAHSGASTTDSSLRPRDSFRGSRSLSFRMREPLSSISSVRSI
Excerpt: as §1, §2, §3, §4, §5

The next experiment concerns the target T5, S1P5 (Homo sapiens, UniProt Q9H228).
T5 construct: expressed in transfected cells; host or cells: HEK293 (transient, calcium phosphate); crude membranes
Excerpt: as §1, §2, §3, §4, §5

T2 sequence (O95136 whole entry): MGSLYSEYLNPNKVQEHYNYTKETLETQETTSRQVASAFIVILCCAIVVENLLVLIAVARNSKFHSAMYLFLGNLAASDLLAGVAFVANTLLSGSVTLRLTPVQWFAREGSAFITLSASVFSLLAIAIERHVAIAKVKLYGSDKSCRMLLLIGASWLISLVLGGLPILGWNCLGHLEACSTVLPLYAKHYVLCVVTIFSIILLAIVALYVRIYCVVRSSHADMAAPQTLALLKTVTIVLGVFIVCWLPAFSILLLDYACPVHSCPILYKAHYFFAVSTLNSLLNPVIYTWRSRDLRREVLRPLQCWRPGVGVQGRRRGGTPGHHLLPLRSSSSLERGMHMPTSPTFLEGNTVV
T5 sequence (Q9H228 whole entry): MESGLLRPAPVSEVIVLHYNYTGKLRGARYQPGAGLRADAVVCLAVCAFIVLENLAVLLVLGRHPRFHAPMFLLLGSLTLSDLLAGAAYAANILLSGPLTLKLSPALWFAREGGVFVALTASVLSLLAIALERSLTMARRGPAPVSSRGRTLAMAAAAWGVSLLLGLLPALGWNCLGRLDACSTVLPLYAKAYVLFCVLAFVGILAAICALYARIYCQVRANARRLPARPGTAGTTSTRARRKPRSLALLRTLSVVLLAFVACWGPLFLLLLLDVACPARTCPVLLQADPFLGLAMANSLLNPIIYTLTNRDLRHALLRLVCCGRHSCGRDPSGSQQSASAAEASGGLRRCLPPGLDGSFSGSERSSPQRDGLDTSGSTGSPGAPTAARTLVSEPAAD
T3 sequence (Q99500 whole entry): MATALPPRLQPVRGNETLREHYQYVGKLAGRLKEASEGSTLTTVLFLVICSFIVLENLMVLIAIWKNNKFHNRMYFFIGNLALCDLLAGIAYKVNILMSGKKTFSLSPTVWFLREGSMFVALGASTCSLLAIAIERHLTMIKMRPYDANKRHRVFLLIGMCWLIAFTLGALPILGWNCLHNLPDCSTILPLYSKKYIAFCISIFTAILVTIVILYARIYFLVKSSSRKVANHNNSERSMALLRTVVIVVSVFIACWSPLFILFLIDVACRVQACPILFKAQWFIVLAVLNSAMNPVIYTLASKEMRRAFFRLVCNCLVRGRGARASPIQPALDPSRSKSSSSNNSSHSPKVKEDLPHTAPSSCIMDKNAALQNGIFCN
T1 sequence (P21453 whole entry): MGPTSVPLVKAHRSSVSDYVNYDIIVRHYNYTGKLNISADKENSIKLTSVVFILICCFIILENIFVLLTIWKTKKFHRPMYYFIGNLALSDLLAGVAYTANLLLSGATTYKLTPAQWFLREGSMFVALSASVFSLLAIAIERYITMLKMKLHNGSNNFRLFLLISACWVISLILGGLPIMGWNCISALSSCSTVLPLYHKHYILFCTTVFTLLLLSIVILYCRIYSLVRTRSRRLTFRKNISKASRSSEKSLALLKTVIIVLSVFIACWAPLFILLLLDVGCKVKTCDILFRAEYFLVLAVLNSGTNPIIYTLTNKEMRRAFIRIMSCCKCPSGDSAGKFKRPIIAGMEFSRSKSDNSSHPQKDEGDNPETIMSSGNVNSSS

One may read the EC50 as the concentration at which the effect is half-maximal. A low value points to an effect from little substance. On to `CCCCCc1ccc(-c2ccc(CCC(N)(CO)CO)cc2)cc1` [Example 36], for which the EC50 was 0.33 nM at S1P1; greater than 10000 nM at S1P2; greater than 10000 nM on S1P3; 1.2 nM on S1P4; 1.1 nM at S1P5.
Consider `CCCc1cc(-c2ccc(-c3ccc(CCC(N)(CO)CO)cc3)cc2)no1` [Example 41], for which the EC50 is 0.16 nM on S1P1; greater than 10000 nM at S1P2; 53.8 nM at S1P3; greater than 10000 nM on S1P4; 2.1 nM on S1P5.
For the molecule `NC(CO)(CO)CCc1ccc(-c2ccc(OCc3ccc(F)c(F)c3)cc2)cc1` [Example 63], the half-maximal effective concentration (EC50) at S1P1 is 0.07 nM; at S1P2, greater than 10000 nM; on S1P3, 1.9 nM; at S1P4 it was greater than 10000 nM; on S1P5, 0.1 nM.
